What was measured:
[1] = Inhibition of Staphylococcus aureus TarO assessed as reversal of targocil-mediated bacterial growth inhibition
[2] = system: Staphylococcus aureus subsp. aureus COL; test: Inhibition of methicillin-resistant Staphylococcus aureus COL TarO assessed as concentration of compound for potentiation of action of imipenem-mediated bacterial growth inhibition by 95 %
[3] = Inhibition of Staphylococcus aureus TarO
[4] = Inhibition of Staphylococcus aureus TarO assessed as suppression of bacteriophageK-mediated cell lysis
Staphylococcus aureus [5] = test: Antibacterial activity against methicillin-resistant Staphylococcus aureus COL; assay type: functional
Staphylococcus aureus [6] = test: Inhibition of methicillin-resistant Staphylococcus aureus TarO assessed as potentiation of action of imipenem-mediated bacterial growth inhibition by measuring percentage of compound MITC95<=25 uM for 25 isolates; set-up: scale not given: the % may be the effect or the level left
[7] = system: Staphylococcus epidermidis; test: Inhibition of methicillin-resistant Staphylococcus epidermidis TarO assessed as potentiation of action of imipenem-mediated bacterial growth inhibition by measuring percentage of compound MITC95<=25 uM for 25 isolates; set-up: scale not given: the % may be the effect or the level left
[8] = AUC (0 to 24 hrs) in rat at 2 mg/kg, po; assay type: ADME, organism-based; set-up: dose 2 mg/kg, time < 24 hr, route oral; details: in vivo
[9] = Half life in rat at 2 mg/kg, po; assay type: ADME, organism-based; details: in vivo
[10] = Oral bioavailability in rat at 2 mg/kg; assay type: ADME, organism-based; details: in vivo

SMILES	EC50 [1] [µM]	MITC95 [2] [µM]	IC50 [3] [µM]	EC50 [4] [µM]	Activity (Staphylococcus aureus [5]) [µM]	Activity (Staphylococcus aureus [6]) [%]	Activity [7] [%]	AUC [8] [µM·h]	half-life [9] [h]	bioavailability [10] [%]
CCN(C(=O)CCn1c2cc(C(=O)NC3CC3)ccc2nc1[C@H]1CC[C@H](CC)CC1)C1CCCCC1	90	50	200	108						
CCN(C(=O)CCn1c(C2CCCNC2)nc2cc(F)ccc21)C1CCCCC1 (stereo not given)	> 200	200	16.5	> 200						
CCN(C(=O)CCn1c2cc(CN(C)C)ccc2nc1[C@H]1CC[C@H](CC)CC1)C1CCCCC1	> 200	25	200	> 200						
CC1(C)[C@@H]2CC[C@@]1(C)[C@@H](NC(=O)CCn1c(C3CCCCC3)nc3ccccc31)C2	6	3	0.4	3	>200					
CCNC(=O)N1CCCC(c2nc3cc(F)ccc3n2CCC(=O)N(CC)C2CCCCC2)C1 (stereo not given)	> 200	100	28	> 200						
CCN(C(=O)CCn1c2cc(CO)ccc2nc1[C@H]1CC[C@H](CC)CC1)C1CCCCC1	7.1	0.5	0.1	5.4		68				
CCN(C(=O)CCn1c2cc(F)ccc2nc1[C@H]1CC[C@H](CC)CC1)C1CCCCC1	0.7	0.1	0.02	0.8		68	42			
CCN(C(=O)CCn1c2ccc(F)cc2nc1[C@H]1CC[C@H](CC)CC1)C1CCCCC1	0.03	0.004	0.04	0.04	> 200	76	54	0.9	5	15
CCN(C(=O)CCn1c2cc(-c3cnn(C)c3)ccc2nc1[C@H]1CC[C@H](CC)CC1)C1CCCCC1	0.6	0.2	0.05	0.7		80	67			
CCN(C(=O)CCn1c2cc(-c3cn[nH]c3)ccc2nc1[C@H]1CC[C@H](CC)CC1)C1CCCCC1	24	6.3	200	100						
CCOC(=O)N1CCCC(c2nc3cc(F)ccc3n2CCC(=O)N(CC)C2CCCCC2)C1 (stereo not given)	3.3	0.4	0.1	3.3		68				
CCN(C(=O)CCn1c(-c2ccc(-n3ccnn3)cc2)nc2ccccc21)C1CCCCC1	> 200	19	3.8	> 200						
CCN(C(=O)CCn1c2cc(-c3ccc(CO)cc3)ccc2nc1[C@H]1CC[C@H](CC)CC1)C1CCCCC1	> 200	4.7	0.3	> 200						
CCN(C(=O)CCn1c2cc(-c3ccccc3)ccc2nc1[C@H]1CC[C@H](CC)CC1)C1CCCCC1	0.03	0.2	0.004	0.2		72	12			
CCN(C(=O)CCn1c2c(F)cccc2nc1[C@H]1CC[C@H](CC)CC1)C1CCCCC1	0.4	0.8	0.04	0.9		68	75			
CCN(C(=O)CCn1c(C2CCCN(C(C)=O)C2)nc2cc(F)ccc21)C1CCCCC1 (stereo not given)	> 200	100	48	> 200						
CCN(C(=O)CCn1c2cccc(F)c2nc1[C@H]1CC[C@H](CC)CC1)C1CCCCC1	0.4	0.1	0.03	0.8		68	58			
CCN(C(=O)CCn1c2ccc(Br)cc2nc1[C@H]1CC[C@H](CC)CC1)C1CCCCC1			< 0.4		>200					
CCN(C(=O)CCn1c2cc(-c3ccc(O)cc3)ccc2nc1[C@H]1CC[C@H](CC)CC1)C1CCCCC1	1.8	0.3	0.1	29		56				
CCN(C(=O)CCn1c(-c2ccc(OCC(F)(F)F)cc2)nc2ccccc21)C1CCCCC1	1.1	0.3	0.04	1.2		68	4			
CCN(C(=O)CCn1c(-c2ccc(C(=O)OC)cc2)nc2ccccc21)C1CCCCC1	4.3	1.2	0.1	6.9		64				
CCN(C(=O)CCn1c2cc(C(=O)O)ccc2nc1[C@H]1CC[C@H](CC)CC1)C1CCCCC1	> 200	200	147	> 200						
CCN(C(=O)CCn1c(C2CCCN(C(=O)OC(C)(C)C)C2)nc2cc(F)ccc21)C1CCCCC1 (stereo not given)	1.5	0.5	0.06	1.7		64	4			

From ChEMBL document CHEMBL4428085, “Benzimidazole analogs as WTA biosynthesis inhibitors targeting methicillin resistant Staphylococcus aureus” (Bioorg Med Chem Lett, 2016)
